Measured values from ChEMBL document CHEMBL1201862, “PubChem BioAssay data set” (2004).
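Five concentrations, 48 hours, 96-well plates. Here, GI50 denotes the concentration required for 50% inhibition of growth.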 The source made the active and inactive calls. Cut-off read from the data, not from the text of the source: active = GI50 up to about 1.1 µM and inactive = higher.

Assays:
Assay in all cases: inhibition of tumour cell growth, NCI panel, 48 h
[1] = tested on: OVCAR-8
[2] = tested on: HOP-62
[3] = tested on: UACC-257
[4] = tested on: RXF 393
[5] = tested on: HT-29
[6] = tested on: HL-60
[7] = tested on: Malme-3M
[8] = tested on: SN12C
[9] = tested on: MCF7
[10] = tested on: PC-3
[11] = tested on: SF-268
[12] = tested on: HCC 2998
[13] = tested on: COLO 205
[14] = tested on: KM12
[15] = tested on: T47D
[16] = tested on: DU-145
[17] = tested on: TK-10
[18] = tested on: SW-620
[19] = tested on: NCI-H23
[20] = tested on: EKVX
[21] = tested on: RPMI-8226
[22] = tested on: K562
[23] = tested on: CAKI-1
[24] = tested on: IGROV-1
[25] = tested on: SK-MEL-28
[26] = tested on: 786-0
[27] = tested on: SK-MEL-5
[28] = tested on: CCRF-CEM
[29] = tested on: HCT-15
[30] = tested on: SK-OV-3
[31] = tested on: SR
[32] = tested on: A549
[33] = tested on: M14
[34] = tested on: MDA-N
[35] = tested on: SF-295
[36] = tested on: SNB-75
[37] = tested on: MDA-MB-231
[38] = tested on: LOX IMVI
[39] = tested on: MOLT-4
[40] = tested on: UACC-62
[41] = tested on: NCI-H460
[42] = tested on: NCI/ADR-RES
[43] = tested on: HOP-92
[44] = tested on: BT-549
[45] = tested on: ACHN
[46] = tested on: MDA-MB-435
[47] = tested on: SK-MEL-2
[48] = tested on: SNB-19
[49] = tested on: U-251
[50] = tested on: NCI-H522
[51] = tested on: OVCAR-5

C/C(=C\CCC1=CC(=O)OC1)CCC1C2C(=O)CC(C)[C@@]3(C)CC[C@]1(C)[C@@]23C (stereo partly specified)
GI50 [1]: > 10 µM (inactive)
GI50 [2]: > 10 µM (inactive)
GI50 [3]: > 10 µM (inactive)
GI50 [4]: > 10 µM (inactive)
GI50 [5]: > 10 µM (inactive)
GI50 [6]: 5.85 µM (inactive)
GI50 [7]: > 10 µM (inactive)
GI50 [8]: > 10 µM (inactive)
GI50 [9]: > 10 µM (inactive)
GI50 [10]: > 10 µM (inactive)
GI50 [11]: > 10 µM (inactive)
GI50 [12]: > 10 µM (inactive)
GI50 [13]: > 10 µM (inactive)
GI50 [14]: > 10 µM (inactive)
GI50 [15]: > 10 µM (inactive)
GI50 [16]: > 10 µM (inactive)
GI50 [17]: > 10 µM (inactive)
GI50 [18]: > 10 µM (inactive)
GI50 [19]: > 10 µM (inactive)
GI50 [20]: > 10 µM (inactive)
GI50 [21]: > 10 µM (inactive)
GI50 [22]: 9.44 µM (inactive)
GI50 [23]: > 10 µM (inactive)
GI50 [24]: > 10 µM (inactive)
GI50 [25]: > 10 µM (inactive)
GI50 [26]: > 10 µM (inactive)
GI50 [27]: > 10 µM (inactive)
GI50 [28]: > 10 µM (inactive)
GI50 [29]: > 10 µM
GI50 [30]: > 10 µM (inactive)
GI50 [31]: 6.62 µM (inactive)
GI50 [32]: > 10 µM (inactive)
GI50 [33]: > 10 µM (inactive)
GI50 [34]: > 10 µM (inactive)
GI50 [35]: > 10 µM (inactive)
GI50 [36]: > 10 µM (inactive)
GI50 [37]: > 10 µM (inactive)
GI50 [38]: > 10 µM (inactive)
GI50 [39]: > 10 µM (inactive)
GI50 [40]: > 10 µM (inactive)

NNC(=O)Cn1ccnn1
GI50 [41]: > 100 µM (inactive)
GI50 [1]: > 100 µM (inactive)
GI50 [2]: > 100 µM (inactive)
GI50 [42]: > 100 µM (inactive)
GI50 [3]: > 100 µM (inactive)
GI50 [5]: > 100 µM (inactive)
GI50 [6]: > 100 µM (inactive)
GI50 [7]: > 100 µM (inactive)
GI50 [8]: > 100 µM (inactive)
GI50 [9]: > 100 µM (inactive)
GI50 [10]: > 100 µM (inactive)
GI50 [43]: > 100 µM (inactive)
GI50 [11]: > 100 µM (inactive)
GI50 [44]: > 100 µM (inactive)
GI50 [12]: > 100 µM (inactive)
GI50 [13]: > 100 µM (inactive)
GI50 [14]: > 100 µM (inactive)
GI50 [45]: > 100 µM (inactive)
GI50 [16]: > 100 µM (inactive)
GI50 [17]: > 100 µM (inactive)
GI50 [18]: > 100 µM (inactive)
GI50 [46]: > 100 µM (inactive)
GI50 [19]: > 100 µM (inactive)
GI50 [20]: > 100 µM (inactive)
GI50 [21]: > 100 µM (inactive)
GI50 [22]: > 100 µM (inactive)
GI50 [47]: > 100 µM (inactive)
GI50 [23]: > 100 µM (inactive)
GI50 [24]: > 100 µM (inactive)
GI50 [48]: > 100 µM (inactive)
GI50 [25]: > 100 µM (inactive)
GI50 [26]: > 100 µM (inactive)
GI50 [27]: > 100 µM (inactive)
GI50 [28]: > 100 µM (inactive)
GI50 [29]: > 100 µM
GI50 [31]: > 100 µM (inactive)
GI50 [32]: > 100 µM (inactive)
GI50 [33]: > 100 µM (inactive)
GI50 [49]: > 100 µM (inactive)
GI50 [35]: > 100 µM (inactive)
GI50 [50]: > 100 µM (inactive)
GI50 [36]: > 100 µM (inactive)
GI50 [37]: > 100 µM (inactive)
GI50 [38]: > 100 µM (inactive)
GI50 [39]: > 100 µM (inactive)
GI50 [51]: > 100 µM (inactive)
